In patent US20090069320A1, “Substituted 4-Amino-Quinazoline Compounds with Metabotropic Glutamate Receptor Regulating Activity and Uses Thereof” (Gruenenthal GmbH, priority 2006, published 2009):
Counter-ions that a name gives are not always drawn.

Biological target: T1, mGluR5 receptor (Sus scrofa, UniProt I3LUI7)
T1 construct: 450 μg of protein from brain homogenate with 5 nM ^3[H]-MPEP; from tissue; host or cells: pig brain halves without medulla, cerebellum and pons
Experiment: [3H]-MPEP mGluR5 receptor binding assay (pig brain homogenate)
Conditions: 5 nM [3H]-MPEP; for IC50: read-out: IC50 mGluR5 Receptor (pig) [^3H]-MPEP Bond; for inhibition at 10 µM / % Inhibition of mGluR5 Receptor (pig) [^3H]-MPEP Bond at 10 μM: 10 μM compound; for inhibition at 10 µM: read-out: % Inhibition of mGluR5 Receptor (pig) [^3H]-MPEP Bond at 10 μM
How it was run: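 Radioligand displacement of 5 nM [3H]-MPEP from pig brain homogenate (450 μg protein; medulla, cerebellum and pons removed) in 20 mM Hepes pH 8.0. Compounds were tested at 10 μM, incubated 60 min at room temperature, then filtered and counted by scintillation. Non-specific binding was defined with 10 μM MPEP.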

T1 sequence (I3LUI7 19-1212): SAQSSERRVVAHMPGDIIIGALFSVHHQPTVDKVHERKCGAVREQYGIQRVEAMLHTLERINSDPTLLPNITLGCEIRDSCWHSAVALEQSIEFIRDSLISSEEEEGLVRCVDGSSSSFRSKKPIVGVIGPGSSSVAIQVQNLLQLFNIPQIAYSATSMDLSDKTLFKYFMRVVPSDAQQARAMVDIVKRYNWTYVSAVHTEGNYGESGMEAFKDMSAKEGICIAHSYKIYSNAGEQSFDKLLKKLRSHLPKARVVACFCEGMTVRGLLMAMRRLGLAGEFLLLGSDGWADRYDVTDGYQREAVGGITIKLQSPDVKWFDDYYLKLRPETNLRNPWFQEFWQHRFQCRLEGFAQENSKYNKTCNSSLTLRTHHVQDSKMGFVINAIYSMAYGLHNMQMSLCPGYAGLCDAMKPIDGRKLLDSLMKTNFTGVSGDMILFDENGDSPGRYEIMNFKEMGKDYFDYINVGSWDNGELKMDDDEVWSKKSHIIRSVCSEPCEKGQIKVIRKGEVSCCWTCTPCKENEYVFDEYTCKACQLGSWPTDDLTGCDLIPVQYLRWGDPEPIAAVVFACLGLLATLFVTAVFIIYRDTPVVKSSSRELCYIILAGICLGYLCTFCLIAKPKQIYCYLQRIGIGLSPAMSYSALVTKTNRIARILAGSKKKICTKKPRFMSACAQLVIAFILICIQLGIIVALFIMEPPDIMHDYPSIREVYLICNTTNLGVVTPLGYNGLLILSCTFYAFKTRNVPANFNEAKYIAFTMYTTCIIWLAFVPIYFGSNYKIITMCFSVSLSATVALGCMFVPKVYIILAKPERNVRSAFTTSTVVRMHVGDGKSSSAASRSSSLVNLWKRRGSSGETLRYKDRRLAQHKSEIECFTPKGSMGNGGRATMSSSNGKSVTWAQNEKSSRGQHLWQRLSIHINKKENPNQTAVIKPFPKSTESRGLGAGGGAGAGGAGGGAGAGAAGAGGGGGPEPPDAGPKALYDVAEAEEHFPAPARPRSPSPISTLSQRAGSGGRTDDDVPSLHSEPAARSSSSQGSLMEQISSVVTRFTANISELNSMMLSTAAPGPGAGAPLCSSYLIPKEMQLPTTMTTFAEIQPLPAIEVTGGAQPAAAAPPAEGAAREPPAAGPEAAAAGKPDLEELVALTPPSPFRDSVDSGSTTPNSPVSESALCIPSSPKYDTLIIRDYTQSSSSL

inhibition at 10 µM | Structure (SMILES) | also measured
 | O=C(CC(F)(F)F)N(Cc1cccc(-c2ccc3ncnc(NC4CC4)c3c2)c1)C1CC1 [Example 205, N-cyclopropyl-N-[3-(4-cyclopropylamino-quinazolin-6-yl)-benzyl]-3,3,3-trifluoro-propionamide; hydrochloride] | IC50: 330 nM
34% | Cc1cc(C(=O)N(Cc2cccc(-c3ccc4ncnc(NCCc5ccccc5)c4c3)c2)C2CC2)n(C)n1 [Example 369, N-cyclopropyl-1,3-dimethyl-N-(3-(4-(phenethylamino)quinazolin-6-yl)benzyl)-1H-pyrazole-5-carboxamide] | 
75% | Cc1cc2ncnc(NC3CC3)c2cc1-c1cccc(CN(C(=O)c2cccc(C(F)(F)F)c2)C2CC2)c1 [Example 676, N-cyclopropyl-N-(3-(4-(cyclopropylamino)-7-methylquinazolin-6-yl)benzyl)-3-(trifluoromethyl)benzamide] | 
47% | CN(C)CC(=O)N(Cc1cc(-c2ccc3ncnc(NC4CC4)c3c2)ccn1)C1CC1 [Example 739, N-cyclopropyl-N-((4-(4-(cyclopropylamino)quinazolin-6-yl)pyridin-2-yl)methyl)-2-(dimethylamino)acetamide] | 
 | O=C(c1cccnc1)N(Cc1cc(-c2ccc3ncnc(NC4CC4)c3c2)ccc1Cl)C1CC1 [Example 770, N-(2-chloro-5-(4-(cyclopropylamino)quinazolin-6-yl)benzyl)-N-cyclopropyl nicotinamide] | % Inhibition of mGluR5 Receptor (pig) [^3H]-MPEP Bond at 10 μM: 84%
84% | Cc1cc2ncnc(NC3CC3)c2cc1-c1cccc(CN(C(=O)C(C)(C)C)C2CC2)c1 [Example 719, N-cyclopropyl-N-(3-(4-(cyclopropylamino)-7-methylquinazolin-6-yl)benzyl)pivalamide] | 
 | CS(=O)(=O)N(Cc1cc(-c2ccc3ncnc(NC4CC4)c3c2)ccc1Cl)C1CC1 [Example 764, N-(2-chloro-5-(4-(cyclopropylamino)quinazolin-6-yl)benzyl)-N-cyclopropyl methane sulfonamide] | % Inhibition of mGluR5 Receptor (pig) [^3H]-MPEP Bond at 10 μM: 87%
62% | O=C(c1ccncc1)N(Cc1cc(-c2ccc3ncnc(NC4CC4)c3c2)ccn1)C1CC1 [Example 823, N-cyclopropyl-N-((4-(4-(cyclopropylamino)quinazolin-6-yl)pyridin-2-yl)methyl)isonicotinamide] | 
54% | CCCN(Cc1cccc(-c2ccc3ncnc(Nc4ccccc4)c3c2)c1)C(=O)c1ccc(C)cc1 [Example 91, 4-methyl-N-[3-(4-phenylamino-quinazolin-6-yl)-benzyl]-N-propyl-benzamide] | 
72% | O=C(c1ccc(C(F)(F)F)cc1F)N(Cc1cc(-c2ccc3ncnc(NC4CC4)c3c2)ccn1)C1CC1 [Example 735, N-cyclopropyl-N-((4-(4-(cyclopropylamino)quinazolin-6-yl)pyridin-2-yl)methyl)-2-fluoro-4-(trifluoromethyl)benzamide] | 
74% | CC(=O)N(Cc1cc(-c2ccc3ncnc(NC4CC4)c3c2)ccn1)C1CC1 [Example 773, N-cyclopropyl-N-((4-(4-(cyclopropylamino)quinazolin-6-yl)pyridin-2-yl)methyl)acetamide] | 
 | CC1CCC(=O)N1Cc1cccc(-c2ccc3ncnc(NC4CC4)c3c2)c1 (centres unmarked) [Example 885, 1-(3-(4-(cyclopropylamino)quinazolin-6-yl)benzyl)-5-methylpyrrolidine-2-one] | IC50: 400 nM
48% | CC(C)Nc1ncnc2ccc(-c3cccc(CN(Cc4ccccc4)C(=O)c4cnccn4)c3)cc12 [Example 45, pyrazine-2-carboxylic acid benzyl-[3-(4-isopropylamino-quinazolin-6-yl)-benzyl]-amide] | 
 | CC(C)(C)Nc1ncnc2ccc(-c3ccc(F)c(CN(C(=O)c4cccs4)C4CC4)c3)cc12 [Example 819, N-(5-(4-(tert-butylamino)quinazolin-6-yl)-2-fluorobenzyl)-N-cyclopropyl thiophene-2-carboxamide] | % Inhibition of mGluR5 Receptor (pig) [^3H]-MPEP Bond at 10 μM: 88%
90% | O=C(c1ccc(F)cc1F)N(Cc1cc(-c2ccc3ncnc(NC4CC4)c3c2)ccc1F)C1CC1 [Example 381, N-cyclopropyl-N-(5-(4-(cyclopropylamino)quinazolin-6-yl)-2-fluorobenzyl)-2,4-difluorobenzamide] | 
 | CC(C)Nc1ncnc2ccc(-c3cccc(CN4C(=O)CCC4=O)c3)cc12 [Example 873, 1-(3-(4-(isopropylamino)quinazolin-6-yl)benzyl)pyrrolidine-2,5-dione hydrochloride] | IC50: 80 nM
52% | CCCN(Cc1cccc(-c2ccc3ncnc(Nc4ccccc4)c3c2)c1)C(=O)c1ccccc1Cl [Example 119, 2-chloro-N-[3-(4-phenylamino-quinazolin-6-yl)-benzyl]-N-propyl-benzamide] | 
 | O=C1CCCN1Cc1cccc(-c2ccc3ncnc(NC4CC4)c3c2)c1 [Example 217, 1-[3-(4-cyclopropylamino-quinazolin-6-yl)-benzyl]-pyrrolidine-2-one; hydrochloride] | IC50: 510 nM

inhibition at 10 µM | Structure (SMILES) | also measured
72% | COc1ccc(C(=O)N(Cc2cccc(-c3cc4c(NC5CC5)ncnc4cc3C)c2)C2CC2)cc1OC [Example 722, N-cyclopropyl-N-(3-(4-(cyclopropylamino)-7-methylquinazolin-6-yl)benzyl)-3,4-dimethoxybenzamide] | 
 | CCCCNc1ncnc2ccc(-c3cccc(CN4C(=O)CCC4=O)c3)cc12 [Example 286, 1-(3-(4-(butylamino)quinazolin-6-yl)benzyl)pyrrolidine-2,5-dione hydrochloride] | IC50: 390 nM
36% | COc1ccc(CNc2ncnc3ccc(-c4cccc(CN(C(C)=O)C5CC5)c4)cc23)c(OC)c1 [Example 657, N-cyclopropyl-N-(3-(4-(2,4-dimethoxybenzylamino)quinazolin-6-yl)benzyl)acetamide] | 
89% | O=C(c1ccccc1C(F)(F)F)N(Cc1cc(-c2ccc3ncnc(NC4CC4)c3c2)ccc1F)C1CC1 [Example 413, N-cyclopropyl-N-(5-(4-(cyclopropylamino)quinazolin-6-yl)-2-fluorobenzyl)-2-(trifluoromethyl)benzamide] | 
96% | O=C(c1ccccn1)N(Cc1cc(-c2ccc3ncnc(NC4CC4)c3c2)ccc1F)C1CC1 [Example 428, N-cyclopropyl-N-(5-(4-(cyclopropylamino)quinazolin-6-yl)-2-fluorobenzyl)picolinamide] | 
85% | Cc1nc(NC2CC2)c2cc(-c3ccc(F)c(CN(C(=O)Cc4ccccc4)C4CC4)c3)ccc2n1 [Example 644, N-cyclopropyl-N-(5-(4-(cyclopropylamino)-2-methylquinazolin-6-yl)-2-fluorobenzyl)-2-phenylacetamide] | 
 | O=S(=O)(c1c(F)c(F)c(F)c(F)c1F)N(Cc1cc(-c2ccc3ncnc(NC4CC4)c3c2)ccn1)C1CC1 [Example 848, N-cyclopropyl-N-((4-(4-(cyclopropylamino)quinazolin-6-yl)pyridin-2-yl)methyl)-2,3,4,5,6-pentafluorobenzole sulfonamide] | % Inhibition of mGluR5 Receptor (pig) [^3H]-MPEP Bond at 10 μM: 53%
30% | CC(C)Nc1ncnc2ccc(-c3cccc(CN(Cc4ccccc4)C(=O)c4ccsc4)c3)cc12 [Example 50, thiophene-3-carboxylic acid benzyl-[3-(4-isopropylamino-quinazolin-6-yl)-benzyl]-amide] | 
40% | CN(c1ncnc2ccc(-c3cccc(CN4C(=O)CCC4=O)c3)cc12)C1CC1 [Example 901, 1-(3-(4-(cyclopropyl(methyl)amino)quinazolin-6-yl)benzyl)pyrrolidine-2,5-dione] | 
 | O=C1CCC(=O)N1Cc1cccc(-c2ccc3ncnc(NC4CCCC4)c3c2)c1 [Example 287, 1-(3-(4-(cyclopentylamino)quinazolin-6-yl)benzyl)pyrrolidine-2,5-dione hydrochloride] | IC50: 60 nM
 | O=C1CCC(=O)N1Cc1cc(-c2ccc3ncnc(NC4CC4)c3c2)ccc1F [Example 193, 1-(5-(4-(cyclopropylamino)quinazolin-6-yl)-2-fluorobenzyl)pyrrolidine-2,5-dione] | IC50: 270 nM
87% | CC(=O)N(Cc1nc(-c2ccc3ncnc(NC4CC4)c3c2)cs1)C1CC1 [Example 903, N-cyclopropyl-N-((4-(4-(cyclopropylamino)quinazolin-6-yl)thiazole-2-yl)methyl)acetamide] | 
59% | Cc1nc(NC2CC2)c2cc(-c3cccc(CN(C(=O)c4ccc(F)cc4F)C4CC4)c3)ccc2n1 [Example 517, N-cyclopropyl-N-(3-(4-(cyclopropylamino)-2-methylquinazolin-6-yl)benzyl)-2,4-difluorobenzamide] | 
73% | CS(=O)(=O)N(Cc1cccc(-c2ccc3ncnc(NCCc4ccccc4)c3c2)c1)C1CC1 [Example 440, N-cyclopropyl-N-(3-(4-(phenethylamino)quinazolin-6-yl)benzyl)methane sulfonamide] | 
 | CC(=O)N(Cc1cc(-c2ccc3ncnc(NC(C)(C)C)c3c2)ccc1F)C1CC1 [Example 844, N-(5-(4-(tert-butylamino)quinazolin-6-yl)-2-fluorobenzyl)-N-cyclopropyl acetamide] | % Inhibition of mGluR5 Receptor (pig) [^3H]-MPEP Bond at 10 μM: 94%
81% | N#CCC(=O)N(Cc1ccc(F)c(-c2ccc3ncnc(NC4CC4)c3c2)c1)C1CC1 [Example 900, 2-cyano-N-cyclopropyl-N-(3-(4-(cyclopropylamino)quinazolin-6-yl)-4-fluorobenzyl)acetamide] | 
 | O=C1C2CCCCC2C(=O)N1Cc1cccc(-c2ccc3ncnc(NC4CC4)c3c2)c1 (centres unmarked) [Example 242, 2-[3-(4-cyclopropylamino-quinazolin-6-yl)-benzyl]-hexahydro-isoindole-1,3-dione hydrochloride] | IC50: 3080 nM
